Measurements as given in the supplement of paper PMC5844555.

Tests used:
Test in all cases: 3' UTR reporter interaction score (median-centred robust z-score of log2 firefly/Renilla activity); higher = less repression of the 3' UTR reporter
Settings in all cases: HEK293T; 48 h
MYB = test system: MYB
Procedure, shortened: (§1)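 HEK293T cells were seeded at 10,000 per well in 96-well plates and co-transfected with DharmaFECT Duo, using 100 ng of a firefly luc2P reporter carrying the gene's 3' UTR, 20 ng of Renilla pRL-TK control and 2.5 pmol of miRNA mimic. Both luciferase activities were measured 48 h after transfection. The interaction score is the log-transformed firefly/Renilla ratio, converted to a per-plate robust z-score from the median and median absolute deviation and then median-centred per miRNA, with more negative values indicating interaction. Scores were averaged across at least two independent screens.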

HRAS = test system: HRAS
Procedure, shortened: as §1

EZH2 = test system: EZH2
Procedure, shortened: as §1

FBXW7 = test system: FBXW7
Procedure, shortened: as §1

ZEB2 = test system: ZEB2
Procedure, shortened: as §1

MYT1L = test system: MYT1L
Procedure, shortened: as §1

NOTCH1 = test system: NOTCH1
Procedure, shortened: as §1

PHOX2B = test system: PHOX2B
Procedure, shortened: as §1

MYCN = test system: MYCN
Procedure, shortened: as §1

MYC = test system: MYC
Procedure, shortened: as §1

PHF6 = test system: PHF6
Procedure, shortened: as §1

BRCA2 = test system: BRCA2
Procedure, shortened: as §1

TP53 = test system: TP53
Procedure, shortened: as §1

RB1 = test system: RB1
Procedure, shortened: as §1

Row | Sequence | 3' UTR reporter interaction score (MYB) | 3' UTR reporter interaction score (HRAS) | 3' UTR reporter interaction score (EZH2) | 3' UTR reporter interaction score (FBXW7) | 3' UTR reporter interaction score (ZEB2) | 3' UTR reporter interaction score (MYT1L) | 3' UTR reporter interaction score (NOTCH1) | 3' UTR reporter interaction score (PHOX2B) | 3' UTR reporter interaction score (MYCN) | 3' UTR reporter interaction score (MYC) | 3' UTR reporter interaction score (PHF6) | 3' UTR reporter interaction score (BRCA2) | 3' UTR reporter interaction score (TP53) | 3' UTR reporter interaction score (RB1)
1 | ACUGCCCUAAGUGCUCCUUCU | -0.35 | -0.229 | 0.0537 | 0.408 | -0.687 | 0.161 | -0.46 | 0.63 | 1.21 | 0.276 | -0.374 | -0.325 | 0.48 | -0.147
2 | ACUGGGGGCUUUCGGGCUCUGCGU | 0.119 | -0.439 | -0.722 | 0.537 | 1.01 | 0.0192 | 0.864 | -0.685 | -0.18 | -0.444 | 2.06 | 0.135 | 0.587 | 0.988
3 | ACUUACAGACAAGAGCCUUGCUC | -2.25 | 1.57 | -1.69 | 1.72 | -0.165 | -1.75 | 0.216 | 1.47 | -0.0923 | 0.117 | -1.11 | 0.948 | 0.219 | -0.353
4 | ACUUCACCUGGUCCACUAGCCGU | 0.743 | -0.736 | -0.456 | -2.1 | 0.694 | 1.42 | 0.897 | -0.0718 | 0.0552 | -0.039 | 0.576 | -0.412 | -0.237 | 1.16
5 | ACUUGGGCACUGAAACAAUGUCC | -0.103 | -0.00106 | -1.19 | -0.0493 | 1.78 | 0.0827 | -4.15 | 0.564 | 0.382 | 0.112 | 1.39 | -0.973 | -1.34 | 0.0718
6 | ACUUGUAUGCUAGCUCAGGUAG | -0.993 | 0.169 | 0.301 | 0.132 | 0.0953 | 0.252 | -2.55 | 0.171 | -0.194 | 0.231 | 0.16 | 0.171 | -0.611 | 0.468
7 | AGACCAUGGGUUCUCAUUGU | -0.2 | -0.0387 | 0.304 | -0.214 | -1.1 | 0.673 | -0.0186 | -1.43 | 0.149 | 0.53 | 1.61 | -2.41 | -0.82 | -1.2
8 | AGACCCUGGUCUGCACUCUAU | 0.748 | 1.38 | 2.76 | 1.02 | -0.0019 | -1.4 | -0.49 | -0.928 | 1.92 | 2.47 | -3.41 | 0.647 | -5.07 | -2.99
9 | AGACCUGGCCCAGACCUCAGC | 0.0206 | -0.381 | 0.316 | 0.099 | -0.702 | -3.18 | -0.568 | -0.381 | 0.863 | 0.0891 | -0.218 | -0.79 | 0.562 | -2.21
10 | AGACUUCCCAUUUGAAGGUGGC | 0.287 | -0.109 | 0.311 | 0.497 | 0.705 | 0.482 | -0.842 | 0.285 | -2.21 | -0.381 | 1.01 | -0.566 | -0.0594 | 0.0148
11 | AGAGGCUGGCCGUGAUGAAUUC | 0.549 | -0.467 | 0.351 | -0.536 | 0.958 | -1.95 | 0.488 | 1.42 | 0.202 | -1.78 | 2.37 | -0.104 | -1.7 | -0.425
12 | AGAGGUAGUAGGUUGCAUAGU | 0.728 | 1 | -3.25 | -0.0422 | -0.685 | -0.701 | -0.39 | -0.956 | -3.2 | -2.12 | 0.956 | 0.509 | 0.943 | -0.186
13 | AGAGGUAUAGGGCAUGGGAAAA | 0.665 | -0.616 | -0.166 | -0.74 | 1.12 | 0.692 | 0.463 | -0.404 | -2.96 | 0.244 | 0.541 | 0.942 | -0.403 | -0.615
14 | AGAUCGACCGUGUUAUAUUCGC | -1.19 | 0.57 | 0.0389 | -0.751 | -1.03 | -1.38 | 0.965 | -0.0818 | 0.592 | 0.022 | 0.689 | 0.451 | -2.1 | 0.976
15 | AGCAGCAUUGUACAGGGCUAUCA | -2.18 | 0.106 | -1 | -2.69 | 1.43 | -2.1 | -0.476 | -0.507 | 0.215 | 0.869 | 1.3 | 1.96 | -0.509 | 1.3
16 | AGCAGCAUUGUACAGGGCUAUGA | -1.03 | -0.255 | -0.463 | -0.997 | 0.465 | -1.07 | -0.182 | 1.07 | 0.0597 | 1.13 | 2.88 | 0.461 | 0.727 | -1.15
17 | AGCUACAUCUGGCUACUGGGUCUC | -3.44 | 1.2 | -0.0907 | 0.465 | -1.04 | -0.398 | 0.41 | 0.255 | 1.39 | 0.941 | -0.555 | -0.144 | 0.614 | -3.28
18 | AGCUACAUUGUCUGCUGGGUUUC | -4.52 | 0.0503 | 0.0119 | 1.22 | -0.124 | -0.38 | 0.703 | 0.602 | 0.451 | 0.427 | -0.314 | -0.328 | 0.277 | -3.13
19 | AGCUCGGUCUGAGGCCCCUCAG | 0.304 | 0.284 | -0.671 | 0.253 | 2.05 | 3.65 | 1.23 | -1.22 | -0.643 | -0.504 | 0.229 | 1.86 | 0.0655 | 3.69
